Test results published in publication PMC7377239, “Cardiovascular Effects of Polychlorinated Biphenyls and Their Major Metabolites” (Environmental Health Perspectives, 2020).
Structures can show the parent of a compound that is named as a salt. Where two headings read alike, the source gives them in different places.

Legend:
[1] = test system: iCell endothelial cells (human iPSC-derived ECs); experiment: Tube formation (tubulogenesis) assay in iCell endothelial cells, 18 h; type: cell-based; details: Homo sapiens, Endothelial cell, 18 hr; for activity at 0.1 µM: 0.10 µM
Method in brief: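 iCell ECs (passages 1–5) seeded 7,500 cells/well on reduced-growth-factor Geltrex in starvation medium, exposed overnight at 37°C to compounds in triplicate concentration–response (0.5% DMSO vehicle). Calcein AM staining, 4× imaging, angiogenesis image analysis; readouts normalized to vehicle, four-parameter logistic fit, POD at 1 SD of vehicle; 100 μM assigned NOAEL if no response.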

HUVECs = experiment: High-content imaging cytotoxicity in HUVECs, 24 h; type: cell-based, human; details: Homo sapiens, HUVEC, 24 h; for viability at 0.01 µM / activity at 0.01 µM / viability at 0.1 µM / activity at 0.1 µM / viability at 1 µM / activity at 1 µM / viability at 10 µM / activity at 10 µM / viability at 100 µM / activity at 100 µM: 0.00 µM = 100.00; for viability at 0.1 µM / activity at 0.1 µM: 0.10 µM
Method in brief: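 Point-of-departure values derive from four-parameter logistic fits of vehicle-normalized imaging phenotypes (Hoechst 33342, MitoTracker Orange, calcein AM). The fits follow 24 h exposure of HUVEC monolayers at 37°C and 5% CO2, with a top tested concentration of 100μM.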

[2] = iPSC-EC tube formation, 0.00 µM control = 100.00, read-out: endo.mtl.18hr
[3] = iPSC-EC tube formation, 0.00 µM control = 100.00, read-out: endo.tlps.18hr
[4] = iPSC-EC tube formation, 0.00 µM control = 100.00, read-out: endo.tta.18hr
[5] = iPSC-EC tube formation, 0.00 µM control = 100.00, read-out: endo.ttl.18hr
[6] = HUVECs, 24 hr, read-out: huvec.cyto.24hr
[7] = HUVECs, 24 hr, read-out: huvec.mito.24hr
[8] = HUVECs, 24 hr, read-out: huvec.mitoint.24hr
[9] = HUVECs, 24 hr, read-out: huvec.nma.24hr
[10] = HUVECs, 24 hrs, read-out: huvec.tc.24hrs

## O=S(=O)(O)Oc1cc(Cl)ccc1-c1ccccc1 [2-yl PCB 3 sulfate]
[1]; [2]
  activity at 0.01 µM: 97.5%
  activity at 0.1 µM: 93.9%
  activity at 1 µM: 91.4%
  activity at 10 µM: 83.6%
  activity at 100 µM: 106%
[1]; [3]
  activity at 0.01 µM: 97.8%
  activity at 0.1 µM: 117%
  activity at 1 µM: 118%
  activity at 10 µM: 89.9%
  activity at 100 µM: 86.3%
[1]; [4]
  activity at 0.01 µM: 134%
  activity at 0.1 µM: 102%
  activity at 1 µM: 90.6%
  activity at 10 µM: 60.9%
  activity at 100 µM: 92.2%
[1]; [5]
  activity at 0.01 µM: 124%
  activity at 0.1 µM: 93.2%
  activity at 1 µM: 83.8%
  activity at 10 µM: 58.8%
  activity at 100 µM: 89%
[1]; iPSC-EC tube formation, top concentration 100.00 µM, read-out: endo.mtl.18hr POD
  minimal effective concentration: 100 µM
[1]; iPSC-EC tube formation, top concentration 100.00 µM, read-out: endo.tlps.18hr POD
  minimal effective concentration: 100 µM
[1]; iPSC-EC tube formation, top concentration 100.00 µM, read-out: endo.tta.18hr POD
  minimal effective concentration: 100 µM
[1]; iPSC-EC tube formation, top concentration 100.00 µM, read-out: endo.ttl.18hr POD
  minimal effective concentration: 100 µM
HUVECs; [6]
  viability at 0.01 µM: 95%
  viability at 0.1 µM: 105%
  viability at 1 µM: 95%
  viability at 10 µM: 83.5%
  viability at 100 µM: 93%
HUVECs; [7]
  activity at 0.01 µM: 93.7%
  activity at 0.1 µM: 105%
  activity at 1 µM: 94.6%
  activity at 10 µM: 83.3%
  activity at 100 µM: 92.1%
HUVECs; [8]
  activity at 0.01 µM: 96.9%
  activity at 0.1 µM: 103%
  activity at 1 µM: 92.6%
  activity at 10 µM: 97.9%
  activity at 100 µM: 93.3%
HUVECs; [9]
  activity at 0.01 µM: 100%
  activity at 0.1 µM: 95.3%
  activity at 1 µM: 95.4%
  activity at 10 µM: 97.9%
  activity at 100 µM: 96%
HUVECs; HUVECs, 24 hr, top concentration 100.00 µM, read-out: huvec.cyto.24hr POD
  minimal effective concentration: 100 µM
HUVECs; HUVECs, 24 hr, top concentration 100.00 µM, read-out: huvec.mito.24hr POD
  minimal effective concentration: 100 µM
HUVECs; HUVECs, 24 hr, top concentration 100.00 µM, read-out: huvec.mitoint.24hr POD
  minimal effective concentration: 100 µM
HUVECs; HUVECs, 24 hr, top concentration 100.00 µM, read-out: huvec.nma.24hr POD
  minimal effective concentration: 100 µM
HUVECs; [10]
  viability at 0.01 µM: 95%
  viability at 0.1 µM: 105%
  viability at 1 µM: 95%
  viability at 10 µM: 83.5%
  viability at 100 µM: 93%
HUVECs; HUVECs, 24 hrs, top concentration 100.00 µM, read-out: huvec.tc.24hrs POD
  minimal effective concentration: 100 µM

## O=S(=O)(O)Oc1cc(-c2ccccc2)ccc1Cl [3-PCB 3 sulfate]
[1]; endothelial cells (endo), tube formation mtl, read-out: POD endo.mtl.18hr
  minimal effective concentration: 100 µM
[1]; endothelial cells (endo), tube formation tlps, read-out: POD endo.tlps.18hr
  minimal effective concentration: 6.75 µM
[1]; endothelial cells (endo), tube formation tta, read-out: POD endo.tta.18hr
  minimal effective concentration: 100 µM
[1]; endothelial cells (endo), tube formation ttl, read-out: POD endo.ttl.18hr
  minimal effective concentration: 100 µM
HUVECs; cyto, 24 hr, read-out: POD huvec.cyto.24hr
  minimal effective concentration: 100 µM
HUVECs; mito, 24 hr, read-out: POD huvec.mito.24hr
  minimal effective concentration: 100 µM
HUVECs; mitoint, 24 hr, read-out: POD huvec.mitoint.24hr
  minimal effective concentration: 100 µM
HUVECs; nma, 24 hr, read-out: POD huvec.nma.24hr
  minimal effective concentration: 100 µM
HUVECs; tc, 24 hr, read-out: POD huvec.tc.24hr
  minimal effective concentration: 100 µM
